Measured values as given in patent US12257264B2, “Combination therapy for HIV with adenosine derivative and capsid inhibitors” (Brii Biosciences, Inc., priority 2021, dated 2025).

Legend:
[1] = Plasma stability and conversion to EFdA
Protocol: The pooled frozen plasma was thawed in a water bath at 37° C. prior to experiment. Plasma was centrifuged at 4000 rpm for 5 min and the clots were removed if any. The pH will be adjusted to 7.4±0.1 if required.
Preparation of test compounds and positive control (propantheline bromide): 1 mM intermediate solution was prepared by diluting 10 μL of the stock solution with 90 μL MeOH; 1 mM intermediate of positive control Propantheline was prepared by diluting 10 μL of the stock solution with 90 μL ultrapure water. 100 μM dosing solution was prepared by diluting 20 μL of the intermediate solution (1 mM) with 180 μL MeOH. 98 μL of blank plasma was spiked with 2 μL of dosing solution (100 μM) to achieve 2 μM of the final concentration in duplicate and samples were incubated at 37° C. in a water bath. At each time point (0, 10, 30, 60 and 120 min), […] of stop solution (0.1% FA in MeOH containing 200 ng/mL tolbutamide and 200 ng/mL Labetalol) was added to precipitate protein and mixed thoroughly. Centrifuged sample plates at 4,000 rpm for 10 min. An aliquot of supernatant (100 μL) was transferred from each well to another plates.
Data analysis: The % remaining of test compound after incubation in plasma was calculated using following equation: % Remaining=100×(PAR at appointed incubation time/PAR at T0 time) where PAR is the peak area ratio of analyte versus internal standard (IS) (LC/MS/MS mobile phase condition: 0.1% Formic Acid in Water/0.1% Formic Acid in Acetonitrile. The appointed incubation time points are TO (0 min), Tn (n=0, 10, 30, 60, 120 min). Liver S9 Stability

[2] = Liver S9 stability and conversion to EFdA; format: in vitro ADME, human
Protocol: Intermediate solution: Dilute 5 μL of compounds or controls (7-ethoxycoumarin) from stock solution (10 mM) with 495 μL MeOH (Conc.: 100 μM, 1% DMSO, 99% MeOH). Stop solution: Cold ACN (including 100 ng/mL Tolbutamide and Labetalol as internal standard). Add 2 μL test compound or control working solution/well to all plates (T0, T5, T10, T20, T30, T60, NCF60) except matrix blank. Add 600 μL/well stop solution (cold in 4° C., including 100 ng/mL Tolbutamide/100 ng/mL Labetalol) to terminate the TO plate, then put it on ice. Dispense 840 μL/well S9 solution to 96-well plate as reservoir according to plate map. Then add 100 μL/well to every plate by Apricot. Incubate S9 solution and compound at 37° C. for about 10 min except NCF60 and TO. After adding S9 solution and 98 μLPB buffer to NCF60, incubate at 37° C. without pre-warming, start timer 1. After 60 min, add 600 μL/well stop solution to terminate the reaction. After pre-warming, dispense 760 μL/well cofactor solution to 96-well plate as reservoir according to plate map. Then add 98 μL/well to every plate by Apricot to start reaction. Incubate at 37° C., start timer 2, Add 600 μL/well stop solution (cold in 4° C., including 100 ng/mL Tolbutamide and Labetalol) to terminate the reaction. Samples are centrifuged at 4000 rpm for 20 min. While centrifuging, load 8×new 96-well plate with 300 μL HPLC water, then transfer 100 μL supernatant, mix with water for LC/MS/MS, transferred to Bioanalytical Services for LC-MS/MS analysis. Use equation of first order kinetics to calculate t1/2 and CL: Equation of first order kinetics: […]

**Q.** Which “Conversion to the target drug (EFdA) in human plasma assay” value [1] does the source give for C#C[C@]1(COC(=O)OCc2oc(=O)oc2C)O[C@@H](n2cnc3c(N)nc(F)nc32)C[C@@H]1O [Formula 4-A, ((2R,3S,5R)-5-(6-amino-2-fluoro-9H-purin-9-yl)-2-ethynyl-3-hydroxytetrahydrofuran-2-yl)methyl ((5-methyl-2-oxo-1,3-dioxol-4-yl)methyl) carbonate] here?
**A.** The value was “converted to the target drug efficiently”.

**Q.** And the “Stability in Human Plasma Formation of EFdA” value ([1]; human plasma)?
**A.** Its value is “Yes”.

**Q.** What about the half-life at 2 µM ([1]; human, plasma, pH 7.4) of the same compound?
**A.** The half-life at 2 µM was less than 50 min.

**Q.** And the “Conversion to the target drug (EFdA) in liver S9 assay” value [2]?
**A.** The value was “converted to the target drug efficiently”.

**Q.** And the “Stability in Human Liver S9 Formation of EFdA” value ([2]; human liver S9)?
**A.** The value was “Yes”.

**Q.** And the half-life at 1 µM ([2]; human liver S9, 37° C.)?
**A.** Its half-life at 1 µM is less than 50 min.
